Experiments:
[1] = target: Recombinant human TDO2 (Homo sapiens, UniProt P48775); assay: TDO2 Enzymatic Assay; format: biochemical; conditions: recombinant human TDO2 200 nM, L-tryptophan 300 μM, 40 min room temperature, N′-formylkynurenine absorbance 321 nm; read-out: TDO2 bichemical activity*
Method: (§1) The TDO2 biochemical inhibitory activity is determined by measuring the decrease in N′-formylkynurenine from tryptophan catalyzed by TDO2 enzyme. Recombinant human TDO2 (200 nM), L-tryptophan (300 μM), L-ascorbic acid (20 mM), methylene Blue (20 μM), catalase (0.2 mg/mL), and serial dilutions of the test compounds in a total volume of […] containing DMSO (with final DMSO concentration of 0.5%) and a pH 7.5 buffer containing potassium phosphate (50 mM) were added into each well in a 96-well plate. After incubation at room temperature for 40 min, the absorbance of the reaction mixture was read at 321 nm to measure the formation of N′-formylkynurenine by SpectraMax microplate reader. Percent inhibition of the test compounds was determined by measuring the decrease in N′-formylkynurenine as compared to the control of DMSO vehicle, which was calculated by formula of (WC-WT)/WC, where WC is the mean absorbance of the control well minus blank well; WT is the mean absorbance of the test well minus the blank well. Data was analyzed by GraphPad Prism 5 and the IC50 values were obtained by non-linear regression.
The IC50 values of TDO2 biochemical activity for the examples disclosed herein are listed in Table 2, A: ≤0.1 μM; B: >0.10 μM and ≤0.5 μM; C: >0.5 μM and ≤1.0 μM; and D: >1.0 μM.

[2] = target: T1, TDO2 in A172 cancer cells (Homo sapiens, UniProt P48775); assay: TDO2 Cellular Assay (kynurenine production in A172 cancer cells); format: cell-based; conditions: L-Trp 1 mM, 24 hours incubation, kynurenine at 490 nm
T1 construct: endogenous in cells; host or cells: A172 cancer cells
T1 sequence (P48775 whole entry): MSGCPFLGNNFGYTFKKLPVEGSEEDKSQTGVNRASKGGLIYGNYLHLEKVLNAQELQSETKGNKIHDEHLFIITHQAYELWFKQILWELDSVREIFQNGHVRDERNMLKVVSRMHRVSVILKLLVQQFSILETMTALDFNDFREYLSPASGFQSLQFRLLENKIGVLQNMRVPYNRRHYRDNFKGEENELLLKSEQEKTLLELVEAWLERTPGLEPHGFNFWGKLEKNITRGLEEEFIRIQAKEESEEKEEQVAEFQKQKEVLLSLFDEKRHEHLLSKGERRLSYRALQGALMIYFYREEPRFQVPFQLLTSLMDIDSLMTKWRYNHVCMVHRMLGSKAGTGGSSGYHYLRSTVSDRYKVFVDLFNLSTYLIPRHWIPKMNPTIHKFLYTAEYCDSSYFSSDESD
Method in brief: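 A172 cells seeded overnight, then given 1 mM L-Trp and test compound (0–25 μM, 0.25% DMSO) for 24 h at 37 °C. Supernatant treated with TCA at 50 °C to convert N-formylkynurenine, kynurenine detected with p-dimethylaminobenzaldehyde at 490 nm; IC50 by non-linear regression of inhibition versus DMSO control.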

[3] = target: Recombinant human IDO1 (Homo sapiens, UniProt P14902); assay: IDO1 Enzymatic Assay; conditions: recombinant human IDO1 40 nM, L-tryptophan 100 μM, 40 min room temperature, N′-formylkynurenine absorbance 321 nm; read-out: IDO1 biochemical activity*
Sequence of Recombinant human IDO1 (P14902 whole entry): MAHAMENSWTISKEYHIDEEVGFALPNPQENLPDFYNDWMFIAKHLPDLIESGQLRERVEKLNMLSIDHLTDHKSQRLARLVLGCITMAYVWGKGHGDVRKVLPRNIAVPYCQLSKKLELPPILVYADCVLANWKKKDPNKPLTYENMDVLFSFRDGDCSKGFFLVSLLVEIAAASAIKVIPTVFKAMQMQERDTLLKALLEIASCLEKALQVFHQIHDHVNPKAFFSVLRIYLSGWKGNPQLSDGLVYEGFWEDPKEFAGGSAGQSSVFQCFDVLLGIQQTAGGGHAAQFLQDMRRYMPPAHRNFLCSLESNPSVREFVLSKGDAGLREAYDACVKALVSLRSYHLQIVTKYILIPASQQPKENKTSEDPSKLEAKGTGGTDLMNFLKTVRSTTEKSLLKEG
Method: as §1, with “IDO1” for “TDO2”, “IDO1 (40” for “TDO2 (200”, “(100” for “(300”, “(WC−WT)/WC,” for “(WC-WT)/WC,”
The IC50 values of IDO1 biochemical activity for the examples disclosed herein are listed in Table 2, A: ≤0.1 μM; B: >0.10 μM and ≤0.5 μM; C: >0.5 μM and ≤1.0 μM; and D: >1.0 μM.

[4] = target: T2, IDO1 in Hela cancer cells (Homo sapiens, UniProt P14902); assay: IDO1 Cellular Assay (kynurenine production in IFN-γ stimulated Hela cancer cells); format: cell-based; conditions: human IFN-γ 50 ng/mL, 48 hours incubation, kynurenine at 490 nm
T2 construct: endogenous in cells; host or cells: Hela cancer cells stimulated with human IFN-γ
T2 sequence (P14902 whole entry): as above
Method in brief: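 HeLa cells stimulated with 50 ng/mL IFN-γ (final) and treated 48 h with compound (0–25 μM final, 0.25% DMSO). Supernatant kynurenine measured after TCA hydrolysis and p-dimethylaminobenzaldehyde reaction at 490 nm; inhibition vs DMSO control, IC50 by non-linear regression.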

Sequence of Recombinant human TDO2 (P48775 whole entry): as the sequence (P48775 whole entry) above

| SMILES | IC50 [1] [nM] | IC50 [2] [nM] | IC50 [3] [nM] | IC50 [4] [nM] |
| --- | --- | --- | --- | --- |
| CC1(C)C2CN(c3cc(Cl)cc4[nH]ncc34)CC2CN1S(C)(=O)=O (single isomer, unassigned) [Example 1a] | ≤ 100 | 500 to 1000 | > 1000 |  |
| CS(=O)(=O)N1C[C@H]2CN(c3cc(Cl)cc4[nH]ncc34)C[C@H]2C1 [Example 12, 6-chloro-4-((3aR,6aS)-5-(methylsulfonyl)hexahydropyrrolo[3,4-c]pyrrol-2(1H)-yl)-1H-indazole] |  | ≤ 500 | > 1000 |  |
| CS(=O)(=O)N1CCCC2CN(c3cc(Cl)cc4[nH]ncc34)CC21 (stereo not shown) [Example 13, 6-chloro-4-(1-(methylsulfonyl)hexahydro-1H-pyrrolo[3,4-b]pyridin-6(2H)-yl)-1H-indazole] |  | 500 to 1000 | > 1000 |  |
| CC(=O)N1C[C@@H]2CN(c3cc(Cl)cc4[nH]ncc34)C[C@@H]2C1 [Example 14, 1-((3aR,6aS)-5-(6-chloro-1H-indazol-4-yl)hexahydropyrrolo[3,4-c]pyrrol-2(1H)-yl)ethanone] |  | 500 to 1000 | > 1000 |  |
| CC(=O)N1CCCC2CN(c3cc(Cl)cc4[nH]ncc34)CC21 (stereo not shown) [Example 15, 1-(6-(6-chloro-1H-indazol-4-yl)octahydro-1H-pyrrolo[3,4-b]pyridin-1-yl)ethanone] |  | ≤ 500 | > 1000 |  |
| CS(=O)(=O)NC1[C@H]2CN(c3cc(Cl)cc4[nH]ncc34)C[C@@H]12 (stereo partly drawn) [Example 16, N-((1R,5S)-3-(6-chloro-1H-indazol-4-yl)-3-azabicyclo[3.1.0]hexan-6-yl)methanesulfonamide] |  | 1000 to 5000 | > 1000 |  |
| CC(=O)NC1[C@H]2CN(c3cc(Cl)cc4[nH]ncc34)C[C@@H]12 (stereo partly drawn) [Example 17, N-((1R,5S)-3-(6-chloro-1H-indazol-4-yl)-3-azabicyclo[3.1.0]hexan-6-yl)acetamide] |  | 1000 to 5000 | > 1000 |  |
| CC(=O)N1CCC2CN(c3cc(Cl)cc4[nH]ncc34)CC21 (stereo not shown) [Example 19, 1-(5-(6-chloro-1H-indazol-4-yl)hexahydropyrrolo[3,4-b]pyrrol-1(2H)-yl)ethanone] |  | 500 to 1000 | > 1000 |  |
| Cn1ncc2c(N3CC4CCN(S(C)(=O)=O)C4C3)cc(Cl)cc21 (stereo not shown) [Example 20, 6-chloro-1-methyl-4-(1-(methylsulfonyl)hexahydropyrrolo[3,4-b]pyrrol-5(1H)-yl)-1H-indazole] |  | > 5000 | > 1000 |  |
| CC(=O)N[C@@H]1[C@@H]2CN(c3cc(Cl)cc4[nH]ncc34)C[C@@H]21 [Example 21, N-((1R,5S,6r)-3-(6-chloro-1H-indazol-4-yl)-3-azabicyclo[3.1.0]hexan-6-yl)acetamide] |  | 1000 to 5000 | > 1000 |  |
| CS(=O)(=O)N1CCC2CN(c3cc(Cl)cc4[nH]ncc34)CC21 (stereo not shown) [Example 23, 6-chloro-4-(1-(methylsulfonyl)hexahydropyrrolo[3,4-b]pyrrol-5(1H)-yl)-1H-indazole] |  | 500 to 1000 | > 1000 |  |
| CS(=O)(=O)N[C@@H]1[C@@H]2CN(c3cc(Cl)cc4[nH]ncc34)C[C@@H]21 [Example 24, N-((1R,5S,6r)-3-(6-chloro-1H-indazol-4-yl)-3-azabicyclo[3.1.0]hexan-6-yl)methanesulfonamide] |  | 1000 to 5000 | > 1000 |  |
| CC1(C)C2CN(c3cc(Cl)cc4[nH]ncc34)CC2CN1C(=O)c1ccc(C#N)cc1 (stereo not shown) [Example 27, 4-(5-(6-chloro-1H-indazol-4-yl)-1,1-dimethyloctahydropyrrolo[3,4-c]pyrrole-2-carbonyl)benzonitrile] |  | 500 to 1000 | > 1000 |  |
| CC1(C)C2CN(c3cc(Cl)cc4[nH]ncc34)CC2CN1S(=O)(=O)C1CC1 (stereo not shown) [Example 28, 6-chloro-4-(5-(cyclopropylsulfonyl)-4,4-dimethylhexahydropyrrolo[3,4-c]pyrrol-2(1H)-yl)-1H-indazole] |  | ≤ 500 | > 1000 |  |
| O=C(N[C@H]1[C@@H]2C[C@@](O)(c3cc(Cl)cc4[nH]ncc34)C[C@@H]21)c1cncc(F)c1 [Example 173, N-((1R,3r,5S,6r)-3-(6-chloro-1H-indazol-4-yl)-3-hydroxybicyclo[3.1.0]hexan-6-yl)-5-fluoronicotinamide] |  | ≤ 500 |  | 500 to 1000 |
| C#Cc1cccc(C(=O)N[C@H]2[C@@H]3C[C@@](O)(c4cc(Cl)cc5[nH]ncc45)C[C@@H]32)c1 [Example 174, N-((1R,3r,5S,6r)-3-(6-chloro-1H-indazol-4-yl)-3-hydroxybicyclo[3.1.0]hexan-6-yl)-3-ethynylbenzamide] |  | ≤ 500 |  | ≤ 500 |
| O=C(Cc1ccc(Cl)cc1)N1C[C@@H]2C[C@@](O)(c3cc(Cl)cc4[nH]ncc34)C[C@@H]2C1 [Example 175, 1-((3aR,5r,6aS)-5-(6-chloro-1H-indazol-4-yl)-5-hydroxyhexahydrocyclopenta[c]pyrrol-2(1H)-yl)-2-(4-chlorophenyl)ethanone] |  | ≤ 500 |  | 1000 to 5000 |
| O=C(N[C@H]1[C@@H]2C[C@@](O)(c3cc(Cl)cc4[nH]ncc34)C[C@@H]21)c1ccc(F)c(Br)c1 [Example 176, 3-bromo-N-((1R,3r,5S,6r)-3-(6-chloro-1H-indazol-4-yl)-3-hydroxybicyclo[3.1.0]hexan-6-yl)-4-fluorobenzamide] |  | ≤ 500 |  | ≤ 500 |
| O=C(N[C@H]1[C@@H]2C[C@@](O)(c3cc(Cl)cc4[nH]ncc34)C[C@@H]21)c1ccnc2ccc(F)cc12 [Example 177, N-((1R,3r,5S,6r)-3-(6-chloro-1H-indazol-4-yl)-3-hydroxybicyclo[3.1.0]hexan-6-yl)-6-fluoroquinoline-4-carboxamide] |  | ≤ 500 |  | 500 to 1000 |
| O=C(N[C@H]1[C@@H]2C[C@@](O)(c3cc(Cl)cc4[nH]ncc34)C[C@@H]21)c1cccc(C2CC2)c1 [Example 178, N-((1R,3r,5S,6r)-3-(6-chloro-1H-indazol-4-yl)-3-hydroxybicyclo[3.1.0]hexan-6-yl)-3-cyclopropylbenzamide] |  | ≤ 500 |  | ≤ 500 |
| O=C(N[C@H]1[C@@H]2C[C@@](O)(c3cc(Cl)cc4[nH]ncc34)C[C@@H]21)c1cncc(Cl)c1 [Example 179, 5-chloro-N-((1R,3r,5S,6r)-3-(6-chloro-1H-indazol-4-yl)-3-hydroxybicyclo[3.1.0]hexan-6-yl)nicotinamide] |  | ≤ 500 |  | ≤ 500 |
| O=C(N[C@H]1[C@@H]2C[C@@](O)(c3cc(Cl)cc4[nH]ncc34)C[C@@H]21)c1ccc(F)c(OC(F)(F)F)c1 [Example 180, N-((1R,3r,5S,6r)-3-(6-chloro-1H-indazol-4-yl)-3-hydroxybicyclo[3.1.0]hexan-6-yl)-4-fluoro-3-(trifluoromethoxy)benzamide] |  | ≤ 500 |  | ≤ 500 |
| N#Cc1cncc(C(=O)N[C@H]2[C@@H]3C[C@@](O)(c4cc(Cl)cc5[nH]ncc45)C[C@@H]32)c1 [Example 181, N-((1R,3r,5S,6r)-3-(6-chloro-1H-indazol-4-yl)-3-hydroxybicyclo[3.1.0]hexan-6-yl)-5-cyanonicotinamide] |  | ≤ 500 |  | ≤ 500 |
| O=C(N[C@H]1[C@@H]2C[C@@](O)(c3cc(Cl)cc4[nH]ncc34)C[C@@H]21)c1cncc(C(F)(F)F)c1 [Example 182, N-((1R,3r,5S,6r)-3-(6-chloro-1H-indazol-4-yl)-3-hydroxybicyclo[3.1.0]hexan-6-yl)-5-(trifluoromethyl)nicotinamide] |  | ≤ 500 |  | ≤ 500 |

— patent publication US11548868B2, “Heterocyclic compounds, compositions comprising heterocyclic compound, and methods of use thereof” (JS INNOPHARM (SHANGHAI) LTD, priority 2017, dated 2023)
